These are literature values, as cited in patent publication US9546401B2, “Assays and methods for selecting a treatment regimen for a subject with depression” (The General Hospital Corporation, priority 2011, dated 2017).

Where two headings read alike, the source gives them in different places.

For one data set, the system named is depression. Particulars: parenteral and certain oral forms; cited from earlier work.
Data set [1] concerns adults with major depression. Particulars: cited from earlier work.
For data set [2], the system named is adults with MDD and partial or nonresponse to an SSRI. Particulars: cited from earlier work.

Turning to `C[S+](CC[C@H](N)C(=O)O)C[C@H]1O[C@@H](n2cnc3c(N)ncnc32)[C@H](O)[C@@H]1O` (stereo partly shown) [SAM, S-adenosyl methionine], in the data set on depression, the antidepressant efficacy entry is “antidepressant efficacy greater than placebo and comparable to that of tricyclic antidepressants”.

For the compound `CNCCC(Oc1ccc(C(F)(F)F)cc1)c1ccccc1` (stereo not shown) [fluoxetine], the figures for the rate of non-response in data set [1] (individuals with low or deficient serum folate) and in data set [1] (serum folate levels in the normal range) were 35% and 20%, respectively.

Regarding `Nc1nc2c(c(=O)[nH]1)N(C=O)C(CNc1ccc(C(=O)N[C@@H](CCC(=O)O)C(=O)O)cc1)CN2` (stereo partly shown) [folinic acid, Folinic acid], the “Folate levels after treatment” value in data set [2] (15-30 mg/day added to SSRIs, 8 weeks, baseline 28+/−19 ng/mL) was 301 ± 203 ng/mL. Also, the “HAM-D-17 score after treatment” value in data set [2] (16 completers, baseline 19.1+/−3.9) was 12.8+/−7.0. In addition, the “remission (HAM-D-17 no greater than 7)” value in data set [2] (ITT sample) is listed as 18%; in data set [2] (completers) it was 19%. Also, the entries for the “response (at least 50% reduction in HAM-D-17)” value in data set [2] (completers) and in data set [2] (intent-to-treat (ITT) sample) were 31% and 27%, respectively. The “efficacy as an adjunct in SSRI-refractory depressed individuals with normal folate levels” value in data set [2] (in vivo) is listed as “only modestly effective”.
